Experiments:
basil 'Genovese' = assay: Content analysis of basil: protein, minerals (Example 4, Tables 10-11); assay type: in vivo; settings: 28 DA-A, rates g ai/ha: chlroprifos 3370, chlorothalonil 7900, paclobutrazol 9.7, mepiquat-chloride 37, Isoxadifen 16, Napthalic anhydride 527, + NIS 0.25 % v/v
Protocol: Greenhouse and laboratory studies were conducted to ascertain the tolerance and nutritional quality differences following postemergence applications of the insecticide chlorpyrifos, the fungicide chlorothalonil, the PGRs mepiquat-chloride and paclobutrazol, and the safeners napthalic anhydride and isoxadifen-ethyl on kale ‘Red Russian’ and basil ‘Genovese’. Visual injury was rated based on general phytotoxicity, chlorosis, and visual stunting and each measurement was based on a percent scale from 0 to 100 where 0 equals no visual response and 100 equals complete plant death. Kale and basil were both harvested approximately 4 weeks after treatments and plants were pooled over replicates for content analysis of crude protein, crude amino acid content, acid detergent fiber, neutral detergent fiber, total fatty acids, and/or key mineral content (including Na, Ca, P, Mg, K, Fe, Mn, Zn, and Cu). In addition, the amounts of key individual amino acids (aspartic acid, threonine, glutamic acid, proline, glycine, cysteine, valine, leucine, isoleucine, methionine, and lysine) and composite classifications of fatty acid (saturated fatty acids, monounsaturated fatty acids, polyunsaturated fatty acids) were also analyzed from these sub-samples for kale (Tables 10-14).

[1] = tested on: sweet corn (Zea mays var. rugosa) cultivar 'Incredible'; assay: Content analysis of sweet corn ears: crude protein, amino acids, detergent fiber, fatty acids, minerals (Example 1); assay type: in vivo; settings: POST at b59 rates; every treatment incl. check also got atrazine 560 g ai/ha + COC 1% v/v; relative to treated check (atrazine), check=0
Source text: Herbicide treatments were applied in a water carrier at 23 gallons of solution per acre on a field site near Knoxville, Tenn. and Painter, Va. Treatments include the following: 1) nicosulfuron at 35 g ai/ha (Accent); 2) mesotrione at 105 g ai/ha (Callisto); 3) nicosulfuron at 35 g ai/ha+mesotrione at 105 g ai/ha (Callisto+Accent); 4) tembotrione at 92 g ai/ha+isoxadifen-ethyl at 46 g ai/ha (Laudis); 5) topramezone at 15 g ai/ha (Impact); 6) nicosulfuron at 35 g ai/ha+isoxadifen-ethyl at 9 g ai/ha (Accent Q); 7) nicosulfuron at 35 g ai/ha+isoxadifen-ethyl at 9 g ai/ha+topramezone at 15 g ai/ha (Accent Q+Impact); 8) nicosulfuron 35 g ai/ha+isoxadifen-ethyl at 9 g ai/ha+mesotrione at 105 g ai/ha (Accent Q+Callisto); 9) treated check (atrazine or Aatrex). All treatments included a PRE application of atrazine plus metolachlor in order to maintain weed free conditions. In addition, all POST treatments (including the treated check) included atrazine at 560 g ai/ha and crop oil concentrate at 1% v/v. […] Sweet corn was harvested from the center two rows of each four row plot and weighed in the husk.

[2] = tested on: sweet corn variety 'Incredible'; assay: Sugar and key antioxidant content of sweet corn (Example 1, Table 15); assay type: in vivo, Zea mays var. rugosa; settings: rates g ai/ha: Nicosulfuron 35, Mesotrione 105, Topramezone 18, Isoxadifen-ethyl 13, all incl. treated check with atrazine 560 g ai/ha + 1% v/v crop oil concentrate
Source text: Herbicide treatments were applied in a water carrier at 23 gallons of solution per acre on a field site near Knoxville, Tenn. and Painter, Va. […] All treatments included a PRE application of atrazine plus metolachlor in order to maintain weed free conditions. In addition, all POST treatments (including the treated check) included atrazine at 560 g ai/ha and crop oil concentrate at 1% v/v. […] Sweet corn was harvested from the center two rows of each four row plot and weighed in the husk.

`CCOP(=S)(OCC)Oc1nc(Cl)c(Cl)cc1Cl` [chlroprifos] was tested, and the “ADF, Percent Increase Over the Untreated Check (on a % dry matter basis)” value (basil 'Genovese') was 10 % check, the “Calcium, Percent Increase Over the Untreated Check (on a % dry matter basis)” value (basil 'Genovese') was 3 % check and the “Copper, Percent Increase Over the Untreated Check (on a % dry matter basis)” value (basil 'Genovese') was 8 % check. The “Iron, Percent Increase Over the Untreated Check (on a % dry matter basis)” value (basil 'Genovese') was 57 % check, the “Magnesium, Percent Increase Over the Untreated Check (on a % dry matter basis)” value (basil 'Genovese') was 21 % check and the “Manganese, Percent Increase Over the Untreated Check (on a % dry matter basis)” value (basil 'Genovese') was 12 % check. For the same compound, the “NDF, Percent Increase Over the Untreated Check (on a % dry matter basis)” value (basil 'Genovese') was 9 % check, the “Phosphorous, Percent Increase Over the Untreated Check (on a % dry matter basis)” value (basil 'Genovese') was 50 % check and the “Potassium, Percent Increase Over the Untreated Check (on a % dry matter basis)” value (basil 'Genovese') was 27 % check. For the same compound, the “Protein, Percent Increase Over the Untreated Check (on a % dry matter basis)” value (basil 'Genovese') was 32 % check, the “Sodium, Percent Increase Over the Untreated Check (on a % dry matter basis)” value (basil 'Genovese') was 25 % check and the “Soluble protein, Percent Increase Over the Untreated Check (on a % dry matter basis)” value (basil 'Genovese') was 42 % check. For the same compound, the “Zinc, Percent Increase Over the Untreated Check (on a % dry matter basis)” value (basil 'Genovese') was 46 % check.

In the case of `Cc1c(C(=O)c2cnn(C)c2O)ccc(S(C)(=O)=O)c1C1=NOCC1` [Topramezone*IMPACT, topramezone], the “Acid DF” value [1] is reported as 2 % of check, the Alanine [1] is reported as 8 % of check and the “Amino Acid” value [1] is reported as 7 % of check. The Aspartic ac [1] was 6 % of check, the Cysteine [1] was 3 % of check and the Glutamic ac [1] was 6 % of check. The Glycine [1] was 4 % of check, the Isoleucine [1] was 10 % of check and the Leucine [1] was 8 % of check. The Lysine [1] was 10 % of check, the Methionine [1] was 8 % of check and the “Neutral DF” value [1] was 7 % of check. For the same compound, the Proline [1] was 6 % of check, the Protein [1] was 8 % of check and the Threonine [1] was 12 % of check. For the same compound, the Valine [1] was 9 % of check, the calcium [1] was 0 % of check and the copper [1] was 0 % of check. For the same compound, the iron [1] was 23 % of check, the magnesium [1] was 13 % of check and the manganese [1] was 38 % of check. For the same compound, the mon fattyac [1] was 10 % of check, the phosphorous [1] was 8 % of check and the polyfattyac [1] was 9 % of check. The potassium [1] was 6 % of check, the sat fattyac [1] was 8 % of check and the sodium [1] was 29 % of check. The tot fattyac [1] was 9 % of check, the zinc [1] was 4 % of check and the “Fructose, percent increase” value [2] was 63%. The “Gamma-tocopherol, percent increase” value [2] was 8%, the “Glucose, percent increase” value [2] was 40% and the “Lutein, percent increase” value [2] was 0%. For the same compound, the “Maltose, percent increase” value [2] was 8%, the “Sucrose, percent increase” value [2] was −18% and the “Total Sugars, percent increase” value [2] was 10%. The “Zeaxanthin, percent increase” value [2] was −8% and the “antheraxanthin, percent increase” value [2] was 23%.

For `COc1cc(OC)nc(NC(=O)NS(=O)(=O)c2ncccc2C(=O)N(C)C)n1` [Nicosulfuron*ACCENT, nicosulfuron], the “Acid DF” value [1] was 9 % of check, the Alanine [1] was 1 % of check and the “Amino Acid” value [1] was −1 % of check. The Aspartic ac [1] was −4 % of check, the Cysteine [1] was 0 % of check and the Glutamic ac [1] was −2 % of check. The Glycine [1] was −4 % of check, the Isoleucine [1] was 0 % of check and the Leucine [1] was 0 % of check. The Lysine [1] was 1 % of check, the Methionine [1] was 0 % of check and the “Neutral DF” value [1] was 4 % of check. For the same compound, the Proline [1] was −7 % of check, the Protein [1] was 7 % of check and the Threonine [1] was 2 % of check. For the same compound, the Valine [1] was 0 % of check, the calcium [1] was 0 % of check and the copper [1] was 0 % of check. For the same compound, the iron [1] was 14 % of check, the magnesium [1] was 14 % of check and the manganese [1] was 33 % of check. For the same compound, the mon fattyac [1] was 15 % of check, the phosphorous [1] was 6 % of check and the polyfattyac [1] was 12 % of check. For the same compound, the potassium [1] was 1 % of check, the sat fattyac [1] was 12 % of check and the sodium [1] was 21 % of check. For the same compound, the tot fattyac [1] was 13 % of check, the zinc [1] was 2 % of check and the “Fructose, percent increase” value [2] was 48%. For the same compound, the “Gamma-tocopherol, percent increase” value [2] was 1%, the “Glucose, percent increase” value [2] was 35% and the “Lutein, percent increase” value [2] was 9%. For the same compound, the “Maltose, percent increase” value [2] was 23%, the “Sucrose, percent increase” value [2] was −4% and the “Total Sugars, percent increase” value [2] was 16%. For the same compound, the “Zeaxanthin, percent increase” value [2] was 9% and the “antheraxanthin, percent increase” value [2] was 15%.
